These results are taken from ChEMBL document CHEMBL1201862, “PubChem BioAssay data set” (2004).

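Exposure lasted 48 hours, with cells grown in 96-well plates and compounds tested at five concentrations. Abbreviation: GI50, concentration required for 50% inhibition of growth.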 The source made the active and inactive calls. Rule as the data show it: active = GI50 up to about 1.1 µM and inactive = higher.

In general, GI50 refers to the concentration giving 50% growth inhibition.

Some test systems named below: SF-295; NCI-H522; SN12C; OVCAR-8; UO-31; SF-539; COLO 205; LOX IMVI; SNB-75; MDA-MB-435; SK-OV-3; Hs-578T; EKVX; SR; DU-145; TK-10; MCF7; 786-0; Malme-3M; K562.
Common to all, as to assay: DTP human tumour cell line panel, 48 h

As to `C=CC(C)(C)/C(=C\CO[Si](C(C)C)(C(C)C)C(C)C)C(=O)N(C)c1ccccc1I`, the GI50 with SF-295 is 13 µM (inactive); in the test on NCI-H522, 5.62 µM (inactive); in the test on SN12C it was 16.2 µM (inactive); with OVCAR-8, 14.8 µM (inactive); with UO-31 it was 12.8 µM (inactive); in the test with SF-539 it was 18 µM (inactive). The GI50 in the test with COLO 205 was 16.4 µM (inactive); in the test on LOX IMVI it was 14.3 µM (inactive); in the test on SNB-75, 16.3 µM (inactive); in the test on MDA-MB-435, 24.9 µM (inactive); in the test on SK-OV-3, 16.3 µM (inactive); in the test on Hs-578T, 11.8 µM (inactive). In addition, the GI50 in the test on EKVX was 16 µM (inactive); with SR it was 6.81 µM (inactive); with DU-145, 13.9 µM (inactive); in the test on TK-10 it was 13.4 µM (inactive); with MCF7, 11.5 µM (inactive); with 786-0, 14.5 µM (inactive).

Take `O=C1c2ccc(O)cc2OC(c2cc(O)c(O)c(O)c2)C1O` (stereo not drawn) [DIHYDROBINETIN]: the GI50 is 21.8 µM (inactive) in the test on SF-295; 24.8 µM (inactive) in the test with NCI-H522; 20.4 µM (inactive) in the test with SN12C; 22 µM (inactive) in the test on OVCAR-8; 67.8 µM (inactive) in the test with UO-31; 21.5 µM (inactive) with SF-539. Further, the GI50 with COLO 205 was 32.4 µM (inactive); in the test with LOX IMVI it was 19.1 µM (inactive); with Malme-3M, > 100 µM (inactive); with MDA-MB-435 it was 19.8 µM (inactive); in the test on SK-OV-3, > 100 µM (inactive); in the test on Hs-578T, 70.1 µM (inactive). In addition, the GI50 is 19 µM (inactive) in the test on EKVX; 20.5 µM (inactive) in the test with SR; 47.3 µM (inactive) with DU-145; 23.6 µM (inactive) with TK-10; 25.7 µM (inactive) in the test with MCF7; 23.8 µM (inactive) in the test on 786-0.

As to `CC(C)[N+]([O-])(CCCNc1c2ccccc2nc2cccc([N+](=O)[O-])c12)C(C)C`, the GI50 with SF-295 is < 0.0412 µM (active); in the test on NCI-H522, 0.0294 µM (active); in the test with SN12C, 0.0551 µM (active); in the test on OVCAR-8 it was < 0.0458 µM (active); in the test with SF-539 it was 0.047 µM (active); in the test with COLO 205, < 0.019 µM (active). In addition, the GI50 in the test with LOX IMVI was 0.0619 µM (active); in the test on Malme-3M, < 0.041 µM (active); with MDA-MB-435, < 0.0325 µM (active); with SK-OV-3, 0.262 µM (active); with Hs-578T, < 0.0481 µM (active); in the test on EKVX it was < 0.0367 µM (active). Moreover, the GI50 was 0.0142 µM (active) in the test with SR; < 0.026 µM (active) in the test with DU-145; < 0.0355 µM (active) in the test with K562; < 0.0272 µM (active) with MCF7; 0.0467 µM (active) in the test on 786-0.

For `CC(C)(CNC(=O)/C(Cl)=C(/Cl)C(=O)O)CNC(=O)/C(Cl)=C(/Cl)C(=O)O`, the GI50 is > 100 µM (inactive) in the test on SF-295; 29.1 µM (inactive) in the test on NCI-H522; > 10 µM (inactive) in the test with SN12C; > 100 µM (inactive) in the test on OVCAR-8; > 100 µM (inactive) in the test on UO-31; 67.6 µM (inactive) in the test on SF-539. Besides, the GI50 was 18.2 µM (inactive) with COLO 205; 28.8 µM (inactive) with LOX IMVI; > 100 µM (inactive) with SNB-75; > 100 µM (inactive) in the test on MDA-MB-435; > 100 µM (inactive) in the test on SK-OV-3; > 100 µM (inactive) in the test on Hs-578T. Besides, the GI50 in the test on EKVX was > 100 µM (inactive); in the test on SR, 44.6 µM (inactive); in the test with DU-145, > 100 µM (inactive); with TK-10 it was 64.3 µM (inactive); with K562, 40.1 µM (inactive); in the test on MCF7, 59.6 µM (inactive). The GI50 in the test on 786-0 is > 100 µM (inactive).

Take `Cc1ccc2c(c1)C=CC1(O2)N(c2ccccc2)C(=S)OC1(C)C` (stereo not drawn): the GI50 was 48.2 µM (inactive) in the test with SF-295; > 100 µM (inactive) with SN12C; > 100 µM (inactive) with OVCAR-8; 28.5 µM (inactive) with UO-31; > 100 µM (inactive) in the test with COLO 205; > 100 µM (inactive) in the test on LOX IMVI. Further, the GI50 with SNB-75 is > 100 µM (inactive); in the test on MDA-MB-435, 22.1 µM (inactive); in the test on SK-OV-3 it was 21.4 µM (inactive); with Hs-578T, 31.9 µM (inactive); in the test on EKVX it was 30 µM (inactive); in the test with SR, 14.5 µM (inactive). Also, the GI50 in the test on DU-145 is > 100 µM (inactive); with TK-10, > 100 µM (inactive); in the test on K562, 7.29 µM (inactive); with MCF7 it was 21.3 µM (inactive); with 786-0, > 100 µM (inactive).

In the case of `COc1ccc(N2C(=O)C3c4[nH]c5ccccc5c4C4CCC(C(C)C)CC4C3C2=O)cc1` (stereo not drawn), the GI50 with SF-295 is 53 µM (inactive); in the test on NCI-H522, > 100 µM (inactive); in the test on SN12C it was > 100 µM (inactive); with OVCAR-8, > 100 µM (inactive); in the test with UO-31 it was > 100 µM (inactive); in the test on COLO 205 it was > 100 µM (inactive). Also, the GI50 is > 100 µM (inactive) in the test on LOX IMVI; 35.2 µM (inactive) in the test on SNB-75; 42.9 µM (inactive) in the test with Malme-3M; > 100 µM (inactive) with MDA-MB-435; 37.6 µM (inactive) in the test on SK-OV-3; 40.7 µM (inactive) in the test on Hs-578T. Besides, the GI50 in the test on EKVX was > 100 µM (inactive); with SR, 40.7 µM (inactive); in the test on DU-145, > 100 µM (inactive); in the test with TK-10 it was > 100 µM (inactive); in the test on K562, > 100 µM (inactive); with MCF7, > 100 µM (inactive). In addition, the GI50 in the test with 786-0 was > 100 µM (inactive).

For the molecule `S=C1Nc2cnc3ccccc3c2SC1c1ccccc1` (stereo not drawn), the GI50 with SF-295 was 61.7 µM (inactive); with NCI-H522, > 100 µM (inactive); with SN12C, > 100 µM (inactive); with OVCAR-8, > 100 µM (inactive); with UO-31, > 100 µM (inactive); in the test with COLO 205, > 100 µM (inactive). Besides, the GI50 in the test on LOX IMVI is 97.5 µM (inactive); in the test on SNB-75 it was 28.4 µM (inactive); in the test with Malme-3M, > 100 µM (inactive); with MDA-MB-435, 83.4 µM (inactive); in the test with SK-OV-3 it was 72.8 µM (inactive); with Hs-578T, 49.9 µM (inactive). Also, the GI50 with EKVX, in the test with SR, in the test on DU-145, in the test on TK-10, in the test on K562 and with MCF7 was > 100 µM (inactive) in each case. In addition, the GI50 with 786-0 is > 100 µM (inactive).

For the molecule `CC(=O)O[C@H]1C(=O)[C@@]2(C)[C@H]([C@H](OC(=O)c3ccccc3)[C@]3(O)C[C@H](OC(=O)[C@H](O)[C@@H](NC(=O)c4ccoc4)c4ccccc4)C(C)=C1C3(C)C)[C@]1(OC(C)=O)CO[C@@H]1C[C@@H]2O`, the 50% growth inhibitory concentration (GI50) in the test on SF-295 is < 0.01 µM (active); with NCI-H522 it was < 0.01 µM (active); with SN12C, 0.0338 µM (active); in the test on OVCAR-8, 0.067 µM (active); in the test with UO-31, 3.39 µM (inactive); in the test on SF-539, 0.0292 µM (active). Besides, the GI50 with COLO 205 was 0.026 µM (active); in the test with LOX IMVI, 0.0215 µM (active); with SNB-75 it was 0.0112 µM (active); in the test on MDA-MB-435 it was 0.0071 µM (active); in the test with SK-OV-3 it was 0.358 µM (active); in the test on Hs-578T, 0.0246 µM (active). The GI50 is 0.897 µM (active) in the test on EKVX; 0.0355 µM (active) in the test with SR; 0.0624 µM (active) in the test on DU-145; 0.0861 µM (active) in the test with TK-10; 0.016 µM (active) in the test with K562; 0.0265 µM (active) in the test with MCF7. Further, in the test with 786-0, the GI50 is 0.18 µM (active).

Regarding `CSC(Cc1ccc2c(c1)Sc1ccccc1O2)=[N+]1CCOCC1`, the GI50 in the test on SF-295 is 44.5 µM (inactive); with SN12C it was > 100 µM (inactive); in the test on OVCAR-8 it was 52.6 µM (inactive); in the test on UO-31, 36.8 µM (inactive); in the test with SF-539, 74.6 µM (inactive); in the test on COLO 205, > 100 µM (inactive). The GI50 in the test with LOX IMVI was 80.4 µM (inactive); in the test with SNB-75, 32.4 µM (inactive); in the test with Malme-3M, 26.4 µM (inactive); in the test on MDA-MB-435, 33 µM (inactive); in the test on SK-OV-3, > 100 µM (inactive); with Hs-578T, 30.7 µM (inactive). The GI50 with EKVX is 58.1 µM (inactive); with SR, 3.37 µM (inactive); with DU-145 it was > 100 µM (inactive); in the test on TK-10, > 100 µM (inactive); in the test with K562, 79.6 µM (inactive); in the test on MCF7 it was 40.2 µM (inactive). Also, in the test with 786-0, the GI50 is 88.9 µM (inactive).

As to `C=Cc1nc(C#N)c(N)o1`, the GI50 in the test with SF-295, in the test on NCI-H522, in the test with SN12C, with OVCAR-8, in the test on UO-31 and with SF-539 was > 100 µM (inactive) each time. Also, the GI50 in the test on COLO 205, in the test on LOX IMVI, in the test with SNB-75, with Malme-3M, with MDA-MB-435 and in the test on SK-OV-3 was > 100 µM (inactive) throughout. Also, the GI50 with Hs-578T, in the test with EKVX, in the test on DU-145, with TK-10, in the test on K562 and in the test with MCF7 was > 100 µM (inactive) in each case. In the test on 786-0, the GI50 was > 100 µM (inactive).

On to `O=C1/C(=C\c2ccc([N+](=O)[O-])cc2)Sc2scc(-c3ccc(O)c(O)c3)[n+]21`, for which the GI50 is 12.5 µM (inactive) in the test with SF-295; 1.76 µM (inactive) with NCI-H522; 4.5 µM (inactive) in the test on SN12C; 4.45 µM (inactive) in the test with OVCAR-8; 4.72 µM (inactive) with UO-31; 5.02 µM (inactive) with SF-539. For the same molecule, the GI50 is 2.34 µM (inactive) in the test on COLO 205; 5.61 µM (inactive) in the test on LOX IMVI; 9.25 µM (inactive) with SNB-75; 9.75 µM (inactive) in the test with MDA-MB-435; 12.7 µM (inactive) in the test with SK-OV-3; 14.7 µM (inactive) in the test with Hs-578T. In addition, the GI50 in the test with EKVX is 14.2 µM (inactive); in the test on SR it was 2.62 µM (inactive); with DU-145, 13.5 µM (inactive); with TK-10 it was 2.26 µM (inactive); in the test on K562, 3.4 µM (inactive); in the test on MCF7, 3.56 µM (inactive). Besides, the GI50 in the test on 786-0 is 3.73 µM (inactive).
